In ChEMBL document CHEMBL1154394, “The preparation of 2,6-disubstituted pyridinyl phosphine oxides as novel anti-cancer agents” (Bioorg Med Chem Lett, 2009):
The source made the active and inactive calls. The rule behind the calls is not given here.

Legend:
MDA-MB-231 [1] = experiment: Cytotoxicity against human MDA-MB-231 cells after 48 hrs by one step ATP lite assay; assay type: functional, cell-based
SK-HEP1 [2] = experiment: Cytotoxicity against human SKHEP1 cells after 48 hrs by one step ATP lite assay; assay type: functional, cell-based
MDA-MB-231 [3] = experiment: Growth inhibition of human MDA-MB-231 cells at 70 uM after 48 hrs by one step ATP lite assay in presence of z-VAD-fmk; assay type: functional, cell-based
MDA-MB-231 [4] = experiment: Induction of apoptosis in human MDA-MB-231 cells assessed as morphological changes at 60 uM after 48 hrs; assay type: functional, cell-based
[5] = Cytotoxicity against non malignant human hematological disorder bone marrow cells after 48 hrs by one step ATP lite assay; assay type: cell-based; conditions: Bone marrow cell
SK-HEP1 [6] = experiment: Induction of apoptosis in human SKHEP1 cells assessed as morphological changes at 60 uM after 48 hrs; assay type: functional, cell-based
SK-HEP1 [7] = experiment: Growth inhibition of human SKHEP1 cells at 70 uM after 48 hrs by one step ATP lite assay in presence of z-VAD-fmk; assay type: functional, cell-based
SK-HEP1 [8] = experiment: Growth inhibition of human SKHEP1 cells at 100 uM after 48 hrs by one step ATP lite assay; assay type: functional; parameters: scale not given: the % may be the effect or the level left
MDA-MB-231 [9] = experiment: Growth inhibition of human MDA-MB-231 cells at 100 uM after 48 hrs by one step ATP lite assay; assay type: functional; conditions: MDA-MB-231, 48 h, read-out: GI

COc1cc(P(=O)(c2ccccc2)c2ccccc2)cc(OC)n1
Activity (MDA-MB-231 [1]): Active
Activity (SK-HEP1 [2]): Active

COc1nc(OC)c(Br)c(P(=O)(c2ccccc2)c2ccccc2)c1Br
Activity (MDA-MB-231 [3]): inactive
Activity (MDA-MB-231 [4]): Active
IC50 (MDA-MB-231 [1]; MDA-MB-231, 48 h): 47.5 µM
IC50 [5]: 54.2 µM
Activity (SK-HEP1 [6]): Active
Activity (SK-HEP1 [7]): inactive
IC50 (SK-HEP1 [2]; SK-HEP1, 48 h): 38.5 µM

COc1cc(P(=O)(c2ccccc2)c2ccccc2)c(Br)c(OC)n1
Activity (MDA-MB-231 [4]): Active
Activity (SK-HEP1 [6]): Active
Activity (SK-HEP1 [8]): 30%
inhibition of growth at 100 µM (MDA-MB-231 [9]): 30%
